Assay [1] has as its target T1, IDO1 enzyme in the Hela cell (Homo sapiens, UniProt P14902).
T1 construct: endogenous in cells; host or cells: HeLa cells stimulated with interferon γ (100 ng/ml)
As to the kind of experiment: Cell activity: interferon γ-stimulated Hela cells, absorbance of supernatant at 480 nm. To be noted: interferon γ 100 ng/ml, 72 hours. In kind it is cell-based. The method, then: (2) Method for Determining Cell Activity
Hela cells were cultured and passaged in a DMEM medium supplemented with antibiotics in a 37° C. CO2 incubator, inoculated into a 96-well plate for overnight culture, then 1 μl of heterocyclic urea compound with appropriate concentration was added to each well, and then 100 μl of interferon γ (final concentration was 100 ng/ml) was added. After the cells were continuously cultured for 72 hours, 70 μl of cell culture supernatant was added to a 96-well V-bottom plate, 5 μl of trichloroacetic acid (6.1 N) was added to each well, incubated at 50° C. for 30 min, then taken out and centrifuged at […] for 10 min. The above centrifuged supernatant was transferred to a 384-well microplate (20 μl/well), then 20 μl of 2% didimethylaminobenzaldehyde acetic acid solution was added to each well, shaken and mixed evenly, then photometric absorption was performed at 480 nm, and values were measured.

Assay [2] addresses IDO1 enzyme (Homo sapiens, UniProt P14902). Kind of assay: Determination of biochemical activity of IDO1 enzyme (absorbance at 320 nm). The conditions noted are these: room temperature, 3 hours. The method, then:
(1) Method for Determining Biochemical Activity of IDO1 Enzyme
Firstly, 15 μl of buffer solution of sodium hydrogen phosphate (PH:7-8), 5 μl of reaction buffer solution containing a proper amount of IDO-1 enzyme and heterocyclic urea compound prepared by the invention were added into wells of a microplate, mixed evenly, and reacted at room temperature for 3 hours; then a light absorption value at 320 nm wavelength was detected by using Envision Multilabel Reader of PE company, an inhibition rate of the heterocyclic urea compound on the enzyme reaction was calculated according to an absorption ratio, and an IC50 value of the heterocyclic urea compound was calculated through analysis by GraphPad.

The source of these data is patent publication US11014895B2, “Heterocyclic urea compound, and drug composition and application thereof” (CHINA PHARMACEUTICAL UNIVERSITY, priority 2017, dated 2021).

T1 sequence (P14902 whole entry): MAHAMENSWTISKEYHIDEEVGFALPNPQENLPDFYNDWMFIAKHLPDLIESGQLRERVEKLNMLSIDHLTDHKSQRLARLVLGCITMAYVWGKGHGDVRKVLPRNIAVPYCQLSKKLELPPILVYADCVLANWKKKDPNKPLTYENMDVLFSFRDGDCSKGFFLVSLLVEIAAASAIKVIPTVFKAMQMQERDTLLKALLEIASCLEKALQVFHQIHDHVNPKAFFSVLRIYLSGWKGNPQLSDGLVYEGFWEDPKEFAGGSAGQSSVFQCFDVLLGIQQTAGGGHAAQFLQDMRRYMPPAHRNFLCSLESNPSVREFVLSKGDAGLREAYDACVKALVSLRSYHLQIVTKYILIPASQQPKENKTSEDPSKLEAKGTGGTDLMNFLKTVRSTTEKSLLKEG
Chain of IDO1 enzyme (P14902 whole entry): as above

A word on the IC50: it is the concentration that gives 50% inhibition. Read a low IC50 as greater potency in that assay. Consider `O=C(Nc1nonc1/C(=N/O)Nc1ccc(F)c(Br)c1)NC1CCC1` [Embodiment 31, (Z)-1-(4-(N-(3-bromo-4-fluorophenyl)-N′-hydroxyaminoiminomethyl)-1,2,5-oxadiazole-3-substituted)-3-cyclobutylurea], for which the IC50 in assay [1] and in assay [2] was 0.1 to 1 µM each time.

With `NS(=O)(=O)N1CCC(NC(=O)Nc2nonc2/C(=N/O)Nc2ccc(F)c(Br)c2)CC1` [Embodiment 15, (Z)-1-(4-(N-(3-bromo-4-fluorophenyl)-N′-hydroxyaminoiminomethyl)-1,2,5-oxadiazole-3-substituted)-3-(1(aminosulfonyl)piperidine-4-substituted)urea], the IC50 in assay [1] and in assay [2] was < 0.001 µM throughout.

As to `O=C(Nc1ccsc1)Nc1cocc1/C(=N/O)Nc1ccc(F)c(Br)c1` [Embodiment 78], the IC50 in assay [1] and in assay [2] was > 1 µM throughout.

For `O/N=C(\Nc1ccc(F)c(Br)c1)c1conc1NC(=S)Nc1ccccc1` [Embodiment 134, (Z)-1-(4-(N-(3-bromo-4-fluorophenyl)-N′-hydroxyaminoiminomethyl)-isoxazole-3-substituted)-3-(phenyl)thiourea], the IC50 in assay [1] and in assay [2] was 0.1 to 1 µM throughout.

For the compound `O=C(Nc1ncncn1)Nc1nonc1/C(=N/O)Nc1ccc(F)c(Br)c1` [Embodiment 44, (Z)-1-(4-(N-(3-bromo-4-fluorophenyl)-N′-hydroxyaminoiminomethyl)-1,2,5-oxadiazole-3-substituted)-3-(1,3,5-triazine-2-substituted)urea], the IC50 in assay [1] and in assay [2] was > 1 µM in each case.

For `O=C(Nc1ccc(F)cc1)Nc1nonc1/C(=N/O)Nc1ccc(F)c(Br)c1` [Embodiment 5, (Z)-1-(4-(N-(4-bromo-3-fluorophenyl)-N′-hydroxyaminoiminomethyl)-1,2,5-oxadiazole-3-substituted)-3-(4-fluorophenyl)urea], the IC50 in assay [1] and in assay [2] was > 1 µM throughout.

Take `N=C(Nc1cocc1/C(=N/O)Nc1ccc(F)c(Br)c1)NC1CCCCC1` [Embodiment 162, (Z)-1-(4-(N-(3-bromo-4-fluorophenyl)-N′-hydroxyaminoiminomethyl)-furan-3-substituted)-3-cyclohexylguanidine]: the IC50 in assay [1] and in assay [2] was 0.1 to 1 µM each time.

In the case of `O=C(Nc1ccccc1)Nc1nonc1/C(=N/O)Nc1ccc(F)cc1` [Embodiment 51, (Z)-1-(4-(N-(4-fluorophenyl)-N′-hydroxyaminoiminomethyl)-1,2,5-oxadiazole-3-substituted)-3-phenylurea], the IC50 in assay [1] and in assay [2] was 0.1 to 1 µM throughout.

`O=C(Nc1conc1/C(=N/O)Nc1ccc(F)c(Br)c1)NC1CCCC1` [Embodiment 104, (Z)-1-(4-(N-(3-bromo-4-fluorophenyl)-N′-hydroxyaminoiminomethyl)-isoxazole-3-substituted)-4-(cyclopentyl)urea]: the half-inhibitory concentration (IC50) in assay [1] and in assay [2] was > 1 µM throughout.

For the compound `O=C(Nc1nocc1/C(=N/O)Nc1ccc(F)c(Cl)c1)NC1CCCCC1` [Embodiment 99, (Z)-1-(4-(N-(3-chloro-4-fluorophenyl)-N′-hydroxyaminoiminomethyl)-isoxazole-3-substituted)-3-(cyclohexyl)urea], the IC50 in assay [1] and in assay [2] was 0.1 to 1 µM each time.

As for `N=C(Nc1nonc1/C(=N/O)Nc1ccc(F)c(Br)c1)NC1CCC(O)CC1` (stereo not drawn) [Embodiment 147, (Z)-1-(4-(N-(3-bromo-4-fluorophenyl)-N′-hydroxyaminoiminomethyl)-1,2,5-oxadiazole-3-substituted)-3-(4-hydroxycyclohexyl)guanidine], the IC50 in assay [1] and in assay [2] was < 0.001 µM throughout.

On to `O=C(Nc1nonc1/C(=N/O)Nc1ccc(F)c(Br)c1)Nc1coc2ccccc12` [Embodiment 38, (Z)-1-(4-(N-(3-bromo-4-fluorophenyl)-N′-hydroxyaminoiminomethyl)-1,2,5-oxadiazole-3-substituted)-3-(benzofuran-3-substituted)urea], for which the IC50 in assay [1] and in assay [2] was 0.1 to 1 µM each time.

On to `COc1ccc(NC(=O)Nc2nonc2/C(=N/O)Nc2ccc(F)c(Br)c2)cc1` [Embodiment 1, (Z)-1-(4-(N-(3-bromo-4-fluorophenyl)-N′-hydroxyaminoiminomethyl)-1,2,5-oxadiazole-3-substituted)-3-(4-methoxyphenyl)urea], for which the IC50 in assay [1] and in assay [2] was 0.1 to 1 µM throughout.

For the compound `NCCNC(=O)Nc1nocc1/C(=N/O)Nc1ccc(F)c(Br)c1` [Embodiment 90, (Z)-1-(4-(N-(3-bromo-4-fluorophenyl)-N′-hydroxyaminoiminomethyl)-isoxazole-3-substituted)+3-(2-aminoethyl)urea], the IC50 in assay [1] and in assay [2] was < 0.001 µM each time.

As to `O/N=C(\Nc1ccc(F)c(Br)c1)c1nonc1NC(=S)NC1CCC(O)CC1` (stereo not drawn) [Embodiment 123, (Z)-1-(4-(N-(3-bromo-4-fluorophenyl)-N′-hydroxyaminoiminomethyl)-1,2,5-oxadiazole-3-substituted)-3-(4-hydroxycyclohexyl)thiourea], the IC50 in assay [1] and in assay [2] was < 0.001 µM each time.

`O=C(Nc1nonc1/C(=N/O)Nc1ccc(F)c(Br)c1)NC1CCOCC1` [Embodiment 10, (Z)-1-(4-(N-(3-bromo-4-fluorophenyl)-N′-hydroxyaminoiminomethyl)-1,2,5-oxadiazole-3-substituted)-3-(tetrahydro-2H-pyran-4-substituted)urea]: the IC50 in assay [1] and in assay [2] was < 0.001 µM each time.

As to `O=C(Nc1nonc1/C(=N/O)Nc1ccc(F)c(Br)c1)Nc1c[nH]c2ccccc12` [Embodiment 37, (Z)-1-(4-(N-(3-bromo-4-fluorophenyl)-N′-hydroxyaminoiminomethyl)-1,2,5-oxadiazole-3-substituted)-3-(1H-indole-3-substituted)urea], the IC50 in assay [1] and in assay [2] was 0.1 to 1 µM throughout.

Take `O=C(Nc1nonc1/C(=N/O)Nc1ccc(F)c(Br)c1)Nc1csc2ccccc12` [Embodiment 39, (Z)-1-(4-(N-(3-bromo-4-fluorophenyl)-N′-hydroxyaminoiminomethyl)-1,2,5-oxadiazole-3-substituted)-3-(benzothiophene-3-substituted)urea]: the IC50 in assay [1] and in assay [2] was 0.1 to 1 µM throughout.

In the case of `O=C(Nc1nonc1/C(=N/O)Nc1ccc(F)c(Br)c1)Nc1cccc2[nH]ccc12` [Embodiment 34, (Z)-1-(4-(N-(3-bromo-4-fluorophenyl)-N′-hydroxyaminoiminomethyl)-1,2,5-oxadiazole-3-substituted)-3-(1H-indole-4-substituted)urea], the IC50 in assay [1] and in assay [2] was 0.1 to 1 µM in each case.

With `O=C(Nc1ncccn1)Nc1nonc1/C(=N/O)Nc1ccc(F)c(Br)c1` [Embodiment 43, (Z)-1-(4-(N-(3-bromo-4-fluorophenyl)-N′-hydroxyaminoiminomethyl)-1,2,5-oxadiazole-3-substituted)-3-(pyrimidine-2-substituted)urea], the IC50 in assay [1] and in assay [2] was > 1 µM each time.

On to `O=C(Nc1ccoc1)Nc1nonc1/C(=N/O)Nc1ccc(F)c(Br)c1` [Embodiment 41, (Z)-1-(4-(N-(3-bromo-4-fluorophenyl)-N′-hydroxyaminoiminomethyl)-1,2,5-oxadiazole-3-substituted)-3-(furan-3-substituted)urea], for which the IC50 in assay [1] and in assay [2] was 0.1 to 1 µM throughout.
